Results: patent US5283343A, “2-aryl substituted N-acetyltryptamines and process of preparing such” (priority 1991, dated 1994)
“Also recorded” adds a separate entry of the source.

Key:
[1] = Behavioral despair (forced swimming) test for antidepressants, albino Swiss ND/4 mice; assay type: in vivo, mouse (male albino Swiss ND/4); conditions: for Duration of Immobility: albino Swiss ND/4 mice, 30 mg/kg; for change in time of immobility (in words): albino Swiss mice, noon or midnight
Text: (§1) Methods: Typical and atypical antidepressants reduce the time during which mice are immobile in a forced swimming test. [Porsolt et al., Arch. Int. Pharmacodun. Ther. 229:327-336 (1977)]. This test, known as the behavioral despair test, appears to be a good predictor of clinical antidepressant activity.
(§2) Male albino Swiss ND/4 mice and C3H/HeN mice (4 to 5 weeks old) were purchased from Harlam Sprague Dawley (Indianapolis, Ind.). […] The animals were kept in the same facilities at least two weeks before the experiment to allow them to adapt to a 14/10 hour light/dark cycle (lights on at 4 a.m./off at 6 p.m.).
(§3) Mice were housed in groups of 10 in polycarbonate plastic cages 137/8×85/8×51/8 inches with 88 square inches of floor space) with free access to feed (Agway 3000 rat, mouse and hamster feed) and water. During the light period, light intensity at the level of the cages was about 250 lux. The room temperature was kept constant at 22±1° C. The present series of experiments were conducted between October, 1986 and January, 1987.
(§4) The day of the experiment, mice were weighed, marked on the tail and placed in cages (8 mice per cage) as described above. Animals were transferred to the laboratory where the swim test was to be conducted at 10:00 a.m. for noon experiments and at 5:00 p.m. for evening experiments. For noon experiments, the swim test was started at 12:00 h and for midnight experiments, the swim test was started at 24:00 h. Two mice obtained from different experimental groups were tested simultaneously.
(§5) Apparatus: The apparatus consisted of two glass beakers (height: 13 cm; diameter: 11.5 cm), each placed inside a bigger glass beaker (height: 20 cm; diameter: 12.4 cm) containing 6 cm of water at 23±1° C. A non-transparent panel placed between the two cylinders prevented the mice from seeing each other. At midnight, experiments were conducted under red dim light (Kodak, filter A) provided by two photographic safety lights located at each side of the beakers.
(§6) Drugs: Mice were injected with vehicle or drugs dissolved in vehicle dissolved at the appropriate concentrations. Each mouse received 0.1 ml of liquid/10 g body weight. Drugs were dissolved immediately before the experiment. Desipramine was obtained from Sigma (St. Louis, Mo.) and dissolved in water. […] Bright light was administered with a fluorescent lamp placed one foot above the mice.
(§7) Methods The swim test was conducted as described by Porsolt et al. [Arch. Int. Pharmacodyn. 229:327-336 (1977)]. Forced swim in a narrow cylinder induced a depressed state characterized by an immobile posture, which is readily identifiable. A mouse is considered to be immobile when it ceases struggling and remains floating motionless in the water, making only those movements necessary to keep its head above water. […] Two mice that had received different treatments were observed simultaneously. Mice were dropped into the cylinders and left in the water for 6 minutes. The time of immobility was recorded during the last 4 minutes of swimming.

[2] = Behavioral despair (forced swimming) test for antidepressants, C3H/HeN mice; assay type: in vivo, mouse (C3H/HeN)
Text: as §1, §2, §3, §4, §5, §6, §7

[3] = molecular target: T1, melatonin receptor (Oryctolagus cuniculus, UniProt G1SUP2); experiment: Melatonin receptor assay: calcium-dependent/stimulation-evoked release of 3H-dopamine from rabbit retina (Dubocovich assay); assay type: biochemical; conditions: for effect on melatonin concentration-response curves / melatonin-induced inhibition of calcium-dependent 3H-DA release: compound present during S1 and S2, 0.1, 1 or 10 μM, FIGS. 3a, 3b
T1 sequence (G1SUP2 1-362): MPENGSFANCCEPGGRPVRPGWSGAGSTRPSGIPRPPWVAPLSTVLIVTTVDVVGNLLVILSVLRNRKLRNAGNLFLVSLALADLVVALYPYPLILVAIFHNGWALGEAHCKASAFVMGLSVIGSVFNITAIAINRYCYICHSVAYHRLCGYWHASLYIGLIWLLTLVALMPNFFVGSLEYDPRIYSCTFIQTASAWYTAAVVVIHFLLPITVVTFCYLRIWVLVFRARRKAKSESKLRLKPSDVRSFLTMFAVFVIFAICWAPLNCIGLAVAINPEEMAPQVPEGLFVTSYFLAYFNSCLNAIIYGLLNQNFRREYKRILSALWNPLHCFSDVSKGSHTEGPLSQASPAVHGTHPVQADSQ
Method: Briefly, dopamine release was elicited in vitro by electrical field stimulation (3 Hz, 1 min. 20 mA, […].) of rabbit retinal pieces which had been prelabeled with ^3 H-dopamine. Release was determined as the percentage of total tissue radioactivity that was released during stimulation(s) minus the spontaneous release level determined before and after stimulation. Two periods of stimulation (S1 and S2) were applied 40 minutes apart in each experiment. Results are expressed as the ratio of release in S2 to release in S1 (FIG. 1.).
Drugs are added 20 minutes before the second stimulation to test their effect on the spontaneous and stimulation evoked release of ^3 H-dopamine.
First, the compounds (antagonists) were tested alone to determine their effect on spontaneous and stimulated release of dopamine (FIG. 2a.).
The compound of Example A was present during both S1 and S2 at a concentration of 0.1 μM, 1 μM, or 10 μM. Control is .largecircle..

[4] = molecular target: T1, melatonin receptor; conditions: in vitro, Dubocovich literature; cited from earlier work
[5] = system: melatonin receptor; conditions: rabbit or chicken retina, Dubocovich 1985; cited from earlier work
[6] = C3H/HeN mice, 3.00 mg/kg, midnight, control 67.7 ± 2.15
[7] = C3H/HeN mice, 3.00 mg/kg, noon, control 47.7 ± 3.4
[8] = C3H/HeN mice, 10.00 mg/kg, midnight, control 67.7 ± 2.15
[9] = C3H/HeN mice, 10.00 mg/kg, noon, control 47.7 ± 3.4
[10] = C3H/HeN mice, .03 mg/kg, midnight, control 67.7 ± 2.15
[11] = C3H/HeN mice, .03 mg/kg, noon, control 47.7 ± 3.4
[12] = C3H/HeN mice, noon and midnight

Row | SMILES | Duration of Immobility ([1]; midnight, control 84.3 ± 11.2) [s] | Duration of Immobility ([1]; noon, control 72.4 ± 4.9) [s] | change in time of immobility (in words) [1] | Duration of Immobility [2, 6] [s] | Duration of Immobility [2, 7] [s] | Duration of Immobility [2, 8] [s] | Duration of Immobility [2, 9] [s] | Duration of Immobility [2, 10] [s] | Duration of Immobility [2, 11] [s] | change in time of immobility (in words) [2, 12] | further results
1 | CNCCCN1c2ccccc2CCc2ccccc21 [Desipramine] | 46.0 ± 1.3 | 38.2 ± 5.1 | same decrease in time of immobility in the behavioral despair test at noon and at midnight | 16.1 ± 6.0 | 20.7 ± 3.7 | 13.2 ± 7.2 | 20.7 ± 2.0 | 33.2 ± 7.3 | 46.2 ± 12.9 | more potent to reduce the time of immobility at midnight than at noon | –
2 | CC(=O)NCCc1c(Cc2ccccc2)[nH]c2ccccc12 [Example N-0774, 2-benzyl-N-acetyl tryptamine] | 81.4 ± 3.9 | 57.4 ± 8.9 | neither melatonin nor the melatonin receptor antagonist N-0074 modified the time of immobility | 16.1 ± 5.2 | 37.4 ± 6.6 | 13.1 ± 3.6 | 52.1 ± 6.8 | 47.7 ± 4.7 | 53.8 ± 8.8 | reduces the time of immobility in a dose-dependent fashion, the effect being more pronounced at midnight than at noon | estimated KB (affinity constant from the Schild plot) ([3]; antagonist against melatonin, rabbit retina, antagonist 0.1, 1 or 10 μM in S1 and S2): 20 µM; direct effect on spontaneous dopamine release (Sp2/Sp1) ([3]; compound alone, 0.1-10 μM, FIG. 2a, listed as Example A): little or no direct effects; also recorded: did not modify the control ratio Sp2 /Sp1; direct effect on stimulated (calcium-dependent) dopamine release (S2/S1) ([3]; compound alone, 0.1-10 μM, FIG. 2b, listed as Example A): little or no direct effects; also recorded: did not modify the control ratio; effect on melatonin concentration-response curves / melatonin-induced inhibition of calcium-dependent 3H-DA release ([3]; listed as Example A): shifted in parallel to the right; effect on melatonin concentration-response curves / melatonin-induced inhibition of calcium-dependent 3H-DA release ([3]; listed as Luzindole (N-0774)): antagonization of melatonin-induced inhibition; activity at melatonin receptors (conclusion) ([3]; rabbit retina): potent, competitive antagonist at melatonin receptors; Duration of Immobility ([2]; Table 4, 10 mg/kg, midnight, control 67.7 ± 2.15, strain not given): 16.1 ± 5.20 s; change in time of immobility (in words) ([2]; midnight, compared with bright light): decreases the time of immobility
3 | COc1ccc2[nH]cc(CCNC(C)=O)c2c1 [Melatonin, 5-methoxy-N-acetyl tryptamine] | – | – | neither melatonin nor the melatonin receptor antagonist N-0074 modified the time of immobility | – | – | – | – | – | – | did not change the time of immobility | Duration of Immobility ([2]; C3H/HeN mice, 30 mg/kg, Noon (In-Darkness Administration), control 29.5 ± 3.34): 48.2 ± 5.02 s; Duration of Immobility ([2]; C3H/HeN mice, 30.00 mg/kg, midnight, control 67.7 ± 2.15): 57.9 ± 9.0 s; Duration of Immobility ([2]; C3H/HeN mice, 30.00 mg/kg, noon, control 47.7 ± 3.4): 45.9 ± 18.0 s; change in time of immobility (in words) ([2]; C3H/HeN mice, noon, in-darkness administration): increased the time of immobility; inhibition of calcium-dependent release of 3H dopamine from rabbit retina [4]: inhibit dopamine release; also recorded: picomolar concentrations
4 | CC(=O)NCCc1c[nH]c2ccccc12 [N-acetyl tryptamine] | – | – | – | – | – | – | – | – | – | – | melatonin receptor antagonist property [5]: melatonin receptor antagonist
